Results on two compounds are retold here after ChEMBL document CHEMBL1150318, “Discovery of a novel, orally active himbacine-based thrombin receptor antagonist (SCH 530348) with potent antiplatelet activity” (J Med Chem, 2008).

The test system of series [1] is Platelet. Nature of the series: Ex vivo inhibition of haTRAP-induced platelet aggregation in cynomolgus monkey at 1 mg/kg after >24 hrs by impedance aggregometry. The format is functional. The following applies: Macaca fascicularis.
Series [2] is described as follows: Cmax in cynomolgus monkey at 1 mg/kg, po after >24 hrs. Type of series: ADME, organism-based, Macaca fascicularis. Details: dose 1 mg/kg, route oral. The following applies: in vivo.
Series [3] is described as follows: AUC (0 to 24 hrs) in cynomolgus monkey at 1 mg/kg, po after >24 hrs. The format is ADME, organism-based, Macaca fascicularis. Details: time < 24 hr, dose 1 mg/kg, route oral. The following applies: plasma.
Series [4] concerns the target T1, Proteinase-activated receptor 1 (Homo sapiens, UniProt P25116).
T1 sequence (P25116 whole entry): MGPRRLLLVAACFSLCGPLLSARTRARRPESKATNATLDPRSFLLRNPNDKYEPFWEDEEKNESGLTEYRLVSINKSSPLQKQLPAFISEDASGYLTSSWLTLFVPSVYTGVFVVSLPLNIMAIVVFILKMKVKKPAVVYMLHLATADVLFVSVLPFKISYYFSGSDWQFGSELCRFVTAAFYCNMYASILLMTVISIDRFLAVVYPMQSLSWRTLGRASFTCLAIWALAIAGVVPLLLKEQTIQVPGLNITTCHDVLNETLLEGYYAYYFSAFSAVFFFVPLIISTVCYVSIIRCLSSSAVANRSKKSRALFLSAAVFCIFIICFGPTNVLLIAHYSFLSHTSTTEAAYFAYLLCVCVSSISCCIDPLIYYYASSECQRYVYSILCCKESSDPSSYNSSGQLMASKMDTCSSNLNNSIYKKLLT
In words: Displacement of [3H]haTRAP from PAR1 in human platelets. (In general: Displacement assays read how much labelled ligand stays bound in the presence of the test substance.)

Series [5] concerns Platelet. Nature of the series: Ex vivo inhibition of haTRAP-induced platelet aggregation in cynomolgus monkey at 0.1 mg/kg after >24 hrs by impedance aggregometry. The format is functional. The following applies: Macaca fascicularis.
The test system of series [6] is Platelet. In words: Ex vivo inhibition of haTRAP-induced platelet aggregation in cynomolgus monkey at 0.3 mg/kg, po after 24 hrs by impedance aggregometry. The format is functional. The following applies: Macaca fascicularis.
Series [7] in a line: Cmax in monkey 1 mg/kg, po. Details: dose 1 mg/kg, route oral. The following applies: rhesus monkey, in vivo. The format is ADME, organism-based, Macaca mulatta.
A short description of series [8]: Half life in monkey 1 mg/kg, iv. Type of series: ADME, organism-based, Macaca mulatta. More on the design: dose 1 mg/kg, route intravenous. The following applies: rhesus monkey, in vivo.
Series [9] is described as follows: Oral bioavailability in rat 10 mg/kg. Type of series: ADME, organism-based. The following applies: in vivo.
The target of series [10] is Cytochrome P450 3A4 (Homo sapiens, UniProt P08684). Nature of the series: Inhibition of CYP3A4 in human liver microsomes at 90 uM. The format is ADME, Microsome. In general terms: Liver microsomes are a subcellular fraction often used to study metabolism.
Chain of Cytochrome P450 3A4 (P08684 whole entry): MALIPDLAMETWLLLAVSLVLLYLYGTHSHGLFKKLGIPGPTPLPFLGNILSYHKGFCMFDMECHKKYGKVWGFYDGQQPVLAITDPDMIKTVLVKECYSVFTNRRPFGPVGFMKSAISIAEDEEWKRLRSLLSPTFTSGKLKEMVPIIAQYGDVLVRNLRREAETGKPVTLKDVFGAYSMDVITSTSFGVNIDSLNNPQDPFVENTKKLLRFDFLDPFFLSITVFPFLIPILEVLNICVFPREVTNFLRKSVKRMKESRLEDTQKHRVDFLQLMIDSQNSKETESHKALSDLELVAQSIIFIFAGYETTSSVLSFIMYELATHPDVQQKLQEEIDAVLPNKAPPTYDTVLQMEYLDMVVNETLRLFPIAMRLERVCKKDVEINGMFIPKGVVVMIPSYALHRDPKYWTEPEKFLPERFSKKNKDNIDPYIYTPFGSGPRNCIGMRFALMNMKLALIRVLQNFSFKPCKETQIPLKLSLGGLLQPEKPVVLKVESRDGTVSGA
Series [11] can be described thus: Half life in rat 10 mg/kg, iv. More on the design: dose 10 mg/kg, route intravenous. Type of series: ADME, organism-based. The following applies: in vivo.
Series [12] can be described thus: Cmax in rat 10 mg/kg, po. The format is ADME, organism-based. Details: dose 10 mg/kg, route oral. The following applies: in vivo.
The nature of series [13]: Inhibition of […] in human liver microsomes at 90 uM. Type of series: ADME, Microsome.
For series [14], the target named is Cytochrome P450 2C19 (Homo sapiens, UniProt P33261). Nature of the series: Inhibition of CYP2C19 in human liver microsomes at 90 uM. Type of series: ADME, Microsome.
Chain of Cytochrome P450 2C19 (P33261 whole entry): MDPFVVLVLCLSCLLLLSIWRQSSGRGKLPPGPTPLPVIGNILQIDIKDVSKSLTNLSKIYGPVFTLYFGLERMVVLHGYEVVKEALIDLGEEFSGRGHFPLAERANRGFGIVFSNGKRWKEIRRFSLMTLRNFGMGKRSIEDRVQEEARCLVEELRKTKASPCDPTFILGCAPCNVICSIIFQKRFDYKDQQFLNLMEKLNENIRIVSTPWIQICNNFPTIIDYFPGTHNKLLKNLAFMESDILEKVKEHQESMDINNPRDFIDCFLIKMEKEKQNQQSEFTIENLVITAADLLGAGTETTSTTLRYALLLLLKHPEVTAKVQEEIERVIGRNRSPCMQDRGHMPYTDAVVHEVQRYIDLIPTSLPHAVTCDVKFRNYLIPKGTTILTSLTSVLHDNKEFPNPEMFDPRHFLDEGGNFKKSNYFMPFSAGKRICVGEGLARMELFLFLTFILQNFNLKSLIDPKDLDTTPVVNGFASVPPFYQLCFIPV
Series [15] deals with T2, Proteinase-activated receptor 3 (Homo sapiens) (UniProt O00254).
T2 sequence (whole entry): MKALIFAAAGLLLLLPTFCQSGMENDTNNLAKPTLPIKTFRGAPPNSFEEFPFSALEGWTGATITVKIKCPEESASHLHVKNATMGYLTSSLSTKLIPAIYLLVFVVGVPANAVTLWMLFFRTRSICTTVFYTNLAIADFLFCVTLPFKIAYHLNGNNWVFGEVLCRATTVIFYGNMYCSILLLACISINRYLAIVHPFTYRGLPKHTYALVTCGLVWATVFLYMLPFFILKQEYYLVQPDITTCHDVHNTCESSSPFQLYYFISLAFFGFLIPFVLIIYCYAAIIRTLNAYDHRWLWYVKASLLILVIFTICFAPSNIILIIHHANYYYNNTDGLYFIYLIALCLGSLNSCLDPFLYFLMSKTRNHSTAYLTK
Nature of the series: Binding affinity to PAR3.

Series [16] can be described thus: Oral absorption in rat 10 mg/kg, po. The format is ADME, organism-based. More on the design: dose 10 mg/kg, route oral. The following applies: in vivo, read-out: Fabs.
A short description of series [17]: AUC (0 to 24 hrs) in rat 10 mg/kg, po. The format is ADME, organism-based. More on the design: time < 24 hr, dose 10 mg/kg, route oral. The following applies: plasma.
Series [18] concerns the target T1, Proteinase-activated receptor 1. Nature of the series: Antagonist activity at human PAR1 in HCASMC assessed as inhibition of thrombin-induced calcium efflux. Type of series: functional.
Series [19] in a line: Tmax in rat 10 mg/kg, po. The format is ADME, organism-based. More on the design: dose 10 mg/kg, route oral. The following applies: in vivo.
Series [20] concerns the target Proteinase-activated receptor 2 (Homo sapiens) (UniProt P55085). In words: Binding affinity to PAR2.
In series [21] the test system is Platelet. In words: Ex vivo inhibition of haTRAP-induced platelet aggregation in cynomolgus monkey at 0.5 mg/kg, po after 24 hrs by impedance aggregometry. Type of series: functional. The following applies: Macaca fascicularis.
Series [22] can be described thus: AUC (0 to 24 hrs) in monkey 1 mg/kg, po. Type of series: ADME, organism-based, Macaca mulatta. More on the design: time < 24 hr, dose 1 mg/kg, route oral. The following applies: rhesus monkey, plasma.
The nature of series [23]: Cmax in cynomolgus monkey at 0.1 mg/kg, po after >24 hrs. Type of series: ADME, organism-based, Macaca fascicularis. More on the design: dose 0.1 mg/kg, route oral. The following applies: in vivo.
The nature of series [24]: Tmax in monkey 1 mg/kg, po. The format is ADME, organism-based, Macaca mulatta. More on the design: dose 1 mg/kg, route oral. The following applies: rhesus monkey, in vivo.
Series [25] in a line: AUC (0 to 24 hrs) in cynomolgus monkey at 0.1 mg/kg, po after >24 hrs. The following applies: plasma. Details: time < 24 hr, dose 0.1 mg/kg, route oral. Type of series: ADME, organism-based, Macaca fascicularis.
Series [26] is described as follows: Oral bioavailability in monkey 1 mg/kg. The format is ADME, organism-based, Macaca mulatta. The following applies: rhesus monkey, in vivo.
A short description of series [27]: Oral absorption in monkey 1 mg/kg, po. The following applies: rhesus monkey, in vivo, read-out: Fabs.
Series [28] concerns Plasma. In words: Anticoagulant activity in human plasma assessed as prothrombin time. Type of series: functional, cell-free.
For series [29], the target named is T3, Cytochrome P450 1A2 (Homo sapiens, UniProt P05177).
T3 sequence (P05177 whole entry): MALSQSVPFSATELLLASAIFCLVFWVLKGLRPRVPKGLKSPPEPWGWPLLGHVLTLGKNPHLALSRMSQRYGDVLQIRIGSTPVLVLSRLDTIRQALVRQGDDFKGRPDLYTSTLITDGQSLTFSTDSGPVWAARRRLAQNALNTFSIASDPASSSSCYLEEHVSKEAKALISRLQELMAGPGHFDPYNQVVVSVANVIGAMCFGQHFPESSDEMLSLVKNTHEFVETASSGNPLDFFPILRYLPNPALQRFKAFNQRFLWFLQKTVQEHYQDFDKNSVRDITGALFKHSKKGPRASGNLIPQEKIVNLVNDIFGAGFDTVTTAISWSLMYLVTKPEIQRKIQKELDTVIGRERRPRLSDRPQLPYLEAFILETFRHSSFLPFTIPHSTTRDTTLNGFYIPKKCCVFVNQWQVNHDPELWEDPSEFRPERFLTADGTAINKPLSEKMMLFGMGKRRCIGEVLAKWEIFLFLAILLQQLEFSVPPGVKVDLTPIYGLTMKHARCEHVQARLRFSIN
Nature of the series: Inhibition of CYP1A2 in human liver microsomes at 90 uM. Type of series: ADME, Microsome.

In series [30] the target is T4, Proteinase-activated receptor 4 (Homo sapiens) (UniProt Q96RI0).
T4 sequence (whole entry): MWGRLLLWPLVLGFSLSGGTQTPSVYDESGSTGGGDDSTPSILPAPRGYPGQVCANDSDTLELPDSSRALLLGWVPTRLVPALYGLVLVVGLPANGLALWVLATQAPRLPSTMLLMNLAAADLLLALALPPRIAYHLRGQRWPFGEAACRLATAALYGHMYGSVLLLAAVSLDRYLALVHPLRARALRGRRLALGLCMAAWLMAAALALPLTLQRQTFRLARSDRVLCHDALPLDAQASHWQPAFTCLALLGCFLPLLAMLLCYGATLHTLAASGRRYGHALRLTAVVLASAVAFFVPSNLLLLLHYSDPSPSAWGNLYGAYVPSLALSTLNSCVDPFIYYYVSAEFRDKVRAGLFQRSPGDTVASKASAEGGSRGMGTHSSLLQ
Nature of the series: Activity at PAR4.

In series [31] the test system is Plasma. In words: Anticoagulant activity in human plasma assessed as activated partial thromboplastin time. The format is functional, cell-free.
The target of series [32] is Cytochrome P450 2C9 (Homo sapiens, UniProt P11712). In words: Inhibition of CYP2C9 in human liver microsomes at 90 uM. Type of series: ADME, Microsome.
Chain of Cytochrome P450 2C9 (P11712 whole entry): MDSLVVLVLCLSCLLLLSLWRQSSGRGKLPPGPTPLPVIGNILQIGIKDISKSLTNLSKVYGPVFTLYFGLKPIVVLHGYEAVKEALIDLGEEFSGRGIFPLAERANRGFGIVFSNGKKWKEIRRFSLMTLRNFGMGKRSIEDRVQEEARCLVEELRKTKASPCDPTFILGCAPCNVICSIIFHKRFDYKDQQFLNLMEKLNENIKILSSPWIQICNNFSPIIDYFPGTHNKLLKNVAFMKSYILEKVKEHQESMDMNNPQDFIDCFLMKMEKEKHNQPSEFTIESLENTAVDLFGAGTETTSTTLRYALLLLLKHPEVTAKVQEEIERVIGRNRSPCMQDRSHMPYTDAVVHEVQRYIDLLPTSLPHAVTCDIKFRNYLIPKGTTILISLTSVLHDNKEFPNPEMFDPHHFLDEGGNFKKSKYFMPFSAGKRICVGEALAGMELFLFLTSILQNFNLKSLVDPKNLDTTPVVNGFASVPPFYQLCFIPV

Structures are written as SMILES. Calls of active or inactive are those of the source.

Chain of Proteinase-activated receptor 2 (Homo sapiens) (P55085 whole entry): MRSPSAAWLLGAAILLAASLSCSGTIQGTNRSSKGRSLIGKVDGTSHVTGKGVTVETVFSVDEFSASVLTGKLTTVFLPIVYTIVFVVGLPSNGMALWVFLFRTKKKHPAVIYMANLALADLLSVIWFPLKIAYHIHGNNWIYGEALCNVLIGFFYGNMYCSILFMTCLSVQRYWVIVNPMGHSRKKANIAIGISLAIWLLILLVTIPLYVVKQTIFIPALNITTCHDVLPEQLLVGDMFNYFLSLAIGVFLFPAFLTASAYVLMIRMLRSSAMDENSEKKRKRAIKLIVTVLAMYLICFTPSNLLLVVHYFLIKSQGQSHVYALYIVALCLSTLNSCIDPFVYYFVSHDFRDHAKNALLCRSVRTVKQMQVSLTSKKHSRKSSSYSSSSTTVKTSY

Regarding `CCOC(=O)N[C@@H]1CC[C@@H]2[C@@H](C1)C[C@H]1C(=O)O[C@H](C)[C@H]1[C@H]2/C=C/c1ccc(-c2cccc(C(F)(F)F)c2)cn1`, the inhibition in vivo – broadly, the percentage by which the read-out fell short of the control – at 1 mg/kg in [1] was found to be 100%. In addition, the highest level in series [2] (Cmax) was 330 nM. Further, the AUC(0-t) (as a rule, exposure summed from dosing to a finite time, without extrapolation to infinity) at 24 h in series [3] came to 5.03 µM·h. For the same compound, in series [4], the affinity, expressed as Ki, was 13 nM.
As for `CCOC(=O)N[C@@H]1CC[C@@H]2[C@@H](C1)C[C@H]1C(=O)O[C@H](C)[C@H]1[C@H]2/C=C/c1ccc(-c2cccc(F)c2)cn1` [VORAPAXAR], the inhibition in vivo at 0.1 mg/kg in series [5] amounted to 100%. This compound yielded an inhibition in vivo at 0.3 mg/kg in [6] of 100%. Also, the figures for the Cmax in series [7], in series [12] and in series [23] were 1300 nM, 670 nM and 18 nM, respectively. For the same compound, the half-life (in general, the time needed for the level to fall by half in the phase considered) in series [8] was 13 h; in series [11], 5.1 h. Moreover, the bioavailability – broadly, the share of a dose that reaches the circulation, judged against a reference dose that is usually intravenous – is 33% in [9] and 86% in [26]. Also, the Activity result in series [10], in series [13], in series [14], in [29] and in [32] was “Not Active” throughout. The outcome in [15], in [20], in series [28], in [30] and in [31] was inactive. Also, the Fa in series [16] was 68%; in series [27], 82%. Also, the AUC(0-t) at 24 h in [17] amounted to 5.3 µM·h; in series [22], 10 µM·h; in [25] it was 0.2 µM·h. Besides, the values for the Ki in [18] and in series [4] were 1.1 nM and 8.1 nM, respectively. In addition, the results for the Tmax in [19] and in series [24] were 3 h and 1 h, respectively. In addition, the inhibition in vivo at 0.5 mg/kg in series [21] was 100%.
